The test system of data set [1] is xenografts of human malignant ascites (ovarian carcinoma). Description: In vivo antitumor activity in mice bearing xenografts of human malignant ascites. Conditions: intraperitoneal treatment max 8 times within 30 days; DOX 2.5 mg/kg, CIS 2.5 mg/kg. Here is the method: All mice received cancer cells from the same patient. When the tumors reached a size of about 0.3 cm^3 (15-20 days after transplantation), mice were treated intraperitoneally with the following formulations: (1) Saline (untreated control); (2) Liposomes (Lip); (3) LHRH; (4) DOX; (5) Lip-DOX; (6) Lip-DOX-BCL2 ASO; (7) Lip-DOX-MDR1 ASO; (8) Lip-DOX-BCL2-MDR1 ASO; (9) LHRH-Lip-DOX-BCL2-MDR1 ASO; (10) CIS; (11) Lip-CIS; (12) Lip-CIS-BCL2 ASO; (13) Lip-CIS-MDR1 ASO; (14) Lip-CIS-BCL2-MDR1 ASO; (15) LHRH-Lip-CIS-BCL2-MDR1 ASO; (16) DOX+CIS; (17) Lip-DOX+Lip-CIS; (18) Lip-DOX-BCL2 ASO+Lip-CIS-BCL2 ASO; (19) Lip-DOX-MDR1 ASO+Lip-CIS-MDR1 ASO; (20) Lip-DOX-BCL2-MDR1 ASO+Lip-CIS-BCL2-MDR1 ASO; (21) LHRH-Lip-DOX-BCL2-MDR1 ASO+LHRH-Lip-CIS-BCL2-MDR1 ASO. […] The animals were treated maximum 8 times over four weeks and the development of primary tumor and intraperitoneal metastases was monitored by fluorescent IVIS (Xenogen, Alameda, Calif.) and ultrasound Vevo 2100 (VisualSonics, Toronto, Canada) imaging systems. To initiate bioluminescence of cancer cells, 1× substrate/reaction buffer (Clontech, Mountain View, Calif.) was diluted 1:20 with DPBS and 100 μl of the solution was injected into each mouse. The bioluminescent images were taken 10 minutes after the injection of the substrate. The size of primary tumor was measured by a caliper. At the end of the experiments, tumors and ascites were excised and their mass was measured. Animal weight was evaluated every day during the treatment period. Changes in tumor size were used as an overall marker for antitumor activity.

For data set [2], the system named is tumor and malignant ascites. As to the kind of experiment: Apoptosis induction in tumor and malignant ascites (cell death detection ELISA). Conditions: histone-complexed DNA fragments. The class given is in vivo, mice. How it is done:
(§1) Induction of apoptosis was analyzed by the measurement of the enrichment of histone-associated DNA fragments (mono- and oligo-nucleosomes) in homogenates of the tumor, malignant ascites and other organs (liver, kidney, lung, heart and brain) using anti-histone and anti-DNA antibodies by a cell death detection ELISA Plus kit (Roche, Nutley, N.J.) as previously described (Pakunlu et al. (2004) Cancer Res., 64:6214-6224; Dharap et al. (2005) Proc. Natl. Acad. Sci., 102:12962-12967; Dharap et al. (2003) Pharm. Res., 20:889-896).

Another data set deals with MDR1 mRNA. As to the kind of experiment: MDR1 gene expression in subcutaneous tumors, quantitative RT-PCR. It counts as in vivo, human. Conditions: treated 8 times within 30 days, vs untreated control. How it is done:
(§2) The expression of MDR1 and BCL2 genes was measured using a quantitative RT-PCR as previously described (Pakunlu et al. (2006) J. Control. Rel., 114:153-162). Gene expression was calculated as a percent of internal standard (β2-microglobulin). To identify the presence of BCL2, P-glycoprotein and Caspase 3 (CASP3) proteins, the immunohistochemical staining of paraffin-embedded tumor tissue slides was carried out. For BCL2 and CASP3, slides were deparaffinized in xylene for 5 min followed by progressive rehydration in 100%, 95%, 70% and 50% ethanol for 3 minutes during each step. Endogenous peroxidase activity was blocked by incubating slides in 3% H2O2 solution in methanol at room temperature for 10 minutes and washing in 300 ml PBS two times for 5 minutes. Slides then were stained with anti-mouse monoclonal antibodies for BCL2 conjugated with FITC (1:200 dilution; BioLegend, catalog number 633502, San Diego, Calif.) and for CASP3 conjugated with Alexa Flour 647 (1:200 dilution; BioLegend, catalog number 622702, San Diego, Calif.) by incubating for an hour, washed in 300 ml PBS two times for 5 minutes and analyzed by fluorescence microscopy. To identify the expression of P-glycoprotein, after deparaffinization and rehydration, the slides were stained using Vector® M.O.M. Immunodetection Kit (Vector Laboratories, Inc., Burlingame, Calif.). Mouse monoclonal antibody to P-glycoprotein (ab3366, 1:40 dilution) obtained from Abcam (Cambridge, Mass.) was used as primary antibody for the detection of P-glycoprotein. Biotinylated anti-mouse IgG Reagent (1:250 dilution, Vector Laboratories, Inc., Burlingame, Calif.) and HSP-Streptavidine Detection System (1:500 dilution, Vector Laboratories, Inc., Burlingame, Calif.) in combination with DAB substrate kit (Vector Laboratories, Inc., Burlingame, Calif.) for peroxidase were used for visualization. After staining, the slides were examined by light microscopy and photographed.

A short description of data set [3]: Maximum tolerated dose from animal weight change. It counts as in vivo. Conditions: mice; estimated from animal weight change after injection of increasing doses.
Another data set deals with BCL2 mRNA. As to the kind of experiment: BCL2 gene expression in subcutaneous tumors, quantitative RT-PCR. It counts as in vivo, human. Conditions: treated 8 times within 30 days, vs untreated control. How it is done: as §2
For data set [4], the system named is subcutaneous tumor xenografts of human A549 cancer cells. Description: Antitumor activity in subcutaneous A549 xenografts. Conditions: intratumoral 3 times within 10 days.
Description: NCR nude mice (female, 6 weeks, 20 g) were purchased from Taconic Farms, Inc. (Germantown, N.Y.). […] Briefly, A549 human cancer cells transfected with luciferase (5×10^6) were subcutaneously transplanted into the flanks of female athymic nu/nu mice. According to the approved institutional animal use protocol, the tumors were measured by a caliper every other day and their volumes were calculated as d^2×D/2 where d and D are the shortest and longest diameter of the tumor in mm, respectively. When the tumor reached a mean size of 50 mm^3, mice were divided into seven groups and injected intratumorally 3 times within 10 days with 150 μL of the following formulations: (1) saline (control); (2) free non-bound LHRH; (3) free non-bound siRNA; (4) free non-bound CIS; (5) Mixture of CIS and SPIO-PPI G5; (6) Mixture of CIS and SPIO-PPI G5-siRNA; and (7) Mixture of CIS and SPIO-PPI G5-siRNA-PEG-LHRH complexes. The concentrations of CIS and siRNA in the formulations were 2.5 mg/kg and 30 μM, respectively. Changes in tumor size were monitored by real-time bioluminescence in anesthetized animals by IVIS imaging system (Xenogen Bioscience, Cranbury, N.J.).
Another data set concerns Caspase 3. As to the kind of experiment: Immunohistochemical staining of tumor tissue for Caspase 3. The class given is in vivo, human. Conditions: tumor tissue sections. How it is done: as §2, with “Mouse monoclonal antibody to P-glycoprotein (ab3366, 1:40 dilution) obtained from Abcam (Cambridge, Mass.) was used as primary antibody for the detection of P-glycoprotein. Biotinylated anti-mouse IgG Reagent (1:250 dilution, Vector Laboratories, Inc., Burlingame, Calif.) and HSP-Streptavidine Detection System (1:500 dilution, Vector Laboratories, Inc., Burlingame, Calif.) in combination with DAB substrate kit (Vector Laboratories, Inc., Burlingame, Calif.) for peroxidase were used for visualization. After staining, the slides were examined by light microscopy and photographed.” left out

The subject of data set [5] is healthy organs (liver, kidney, spleen, heart, lung and brain). Description: Apoptosis induction in healthy organs (cell death detection ELISA). It counts as in vivo, mice. How it is done:
as §1

The subject of a further data set is BCL2 gene. Description: BCL2 gene expression, RT-PCR. The class given is cell-based, human. Conditions: A2780 cells, BCL2 siRNA 1 μM delivered by the named carrier, 24 hours. How it is done: Reverse transcription-polymerase chain reaction (RT-PCR) was used for the analysis of gene expression (Pakunlu et al. (2004) Cancer Res., 64:6214-6224). […] After 24 hours, total cellular RNA was isolated using an RNeasy kit (Qiagen, Valencia, Calif.). […] After synthesis, the reaction mixture was immediately subjected to polymerase chain reaction (PCR), which was carried out using […] System 2400 (Perkin-Elmer, Shelton, Conn.). β2-microglobulin (β2-m) was used as an internal standard. The following pairs of primers were used: BCL2: [NT] (sense; SEQ ID NO: 6), [NT] (antisense; SEQ ID NO: 7); β2-m (internal […] (sense; SEQ ID NO: 8), [NT] (antisense; SEQ ID NO: 9). PCR regimen was as follows: 94° C. for 5 minutes; 94° C. for 1 minute, 55° C. for 1 minute, and 72° C. for 1 minute for 41 cycles; and 60° C. for 10 minutes. PCR products were separated in 4% NuSieve 3:1 Reliant-agarose gels (Lonza, Basel, Switzerland) in 1× Tris-borate EDTA buffer [0.089 mol/L Tris-borate, 0.002 mol/L EDTA (pH 8.3); Research Organics Inc., Cleveland, Ohio] by submarine electrophoresis. The gels were stained with EtBr and digitally photographed.

Non-standard residues stand in square brackets, D forms with d. No end group written: not given here. d = 2'-deoxy (DNA); r = 2'-OH (RNA)

Regarding `N.N.[Cl][Pt][Cl]` [CIS, cisplatin], in data set [1], the “development and mass of intraperitoneal metastases and malignant ascites” value is “more effective in limiting the growth of both primary tumor and malignant ascites when compared to corresponding DOX formulations”; the “growth of primary subcutaneous tumor (volume)” value (“growth … (volume)” for short) was “more effective in limiting the growth of both primary tumor and malignant ascites when compared to corresponding DOX formulations”. In [2], the “apoptosis induction in tumor and malignant ascites” value is “induced apoptosis”. Also, in the data set on MDR1 mRNA, the “expression of MDR1 gene” value is “statistically significant overexpression”. In data set [3], the maximum tolerated dose is recorded as 2.5 mg/kg. Moreover, the “expression of BCL2 gene” value in the data set on BCL2 mRNA is on record as “statistically significant overexpression”. The “decrease of tumor volume/growth compared with untreated control” value in [4] (last day of treatment, CIS 2.5 mg/kg, siRNA 30 μM) is 36.2%. Further, in the data set on Caspase 3, the “expression/activation of caspase 3” value is on record as “activated caspase 3”.
`COc1cccc2c1C(=O)c1c(O)c3c(c(O)c1C2=O)C[C@@](O)(C(=O)CO)C[C@@H]3O[C@H]1C[C@H](N)[C@H](O)[C@H](C)O1` [DOX, doxorubicin]: the “growth … (volume)” value in data set [1] is on record as “slowed down the growth”. In addition, the “apoptosis induction in tumor and malignant ascites” value in [2] is listed as “induced apoptosis”. In the data set on MDR1 mRNA, the “expression of MDR1 gene” value is on record as “statistically significant overexpression”. Moreover, the maximum tolerated dose in data set [3] is listed as 2.5 mg/kg. The “expression of BCL2 gene” value in the data set on BCL2 mRNA was “statistically significant overexpression”. Further, the “expression/activation of caspase 3” value in the data set on Caspase 3 was “activated caspase 3”.
On to “Lys6-des-Gly10-Pro9-ethylamide (Gln-His-Trp-Ser-Tyr-DLys-Leu-Arg-Pro-NH-Et; SEQ ID NO: 3) (QHWSY[dK]LRP-NHEt) [LHRH]”, for which, in [1], the “development and mass of intraperitoneal metastases and malignant ascites” value was “did not influence”; the “growth … (volume)” value is given as “did not influence”. For the same molecule, the “apoptosis induction in tumor and malignant ascites” value in data set [2] was “did not induce detectable levels of apoptosis”. Moreover, the “expression of MDR1 gene” value with MDR1 mRNA is listed as “did not change significantly”. The “apoptosis induction in healthy organs” value in data set [5] is reported as “did not induce detectable levels of apoptosis”. Moreover, the “expression of BCL2 gene” value with BCL2 mRNA is on record as “did not change significantly”. The “tumor growth / antitumor activity” value in [4] is “did not significantly influence the growth of the tumor”.
On to “sense strand, 5′-CCU CGG GCU GUG CUC UUU U-dTdT-3′, SEQ ID NO: 10; antisense strand, 5′-AAA AGA GCA CAG CCC GAG G-dTdT-3′, SEQ ID NO: 11 (sense CCUCGGGCUGUGCUCUUUUTT; antisense AAAAGAGCACAGCCCGAGGTT; sugars from the 5' end r19 d2, backbone not given here) [naked non-specific siRNA, non-specific siRNA used as a negative control]”, for which, in the data set on BCL2 gene, the “expression of targeted BCL2 gene, from control value” is listed as “did not influenced”.

(Values after patent US9289505B2, “Compositions and methods for delivering nucleic acid molecules and treating cancer” (Rutgers, The State University of New Jersey, priority 2010, dated 2016).)
